Measurements taken from patent publication US9815851B2, “Pyrrolo carboxamides as modulators of orphan nuclear receptor RAR-related orphan receptor-gamma (RORγ, NR1F3) activity and for the treatment of chronic inflammatory and autoimmune diseases” (PHENEX PHARMACEUTICALS AG, priority 2011, dated 2017).
Read-outs that look alike come from different tables or passages of the source.

Legend:
[1] = target: T1, RORγ (UniProt P51449); assay: RORγ Gal4 Reporter Gene Assay in 293T cells (firefly and renilla luciferase); type: cell-based, human
T1 sequence (P51449 1-518): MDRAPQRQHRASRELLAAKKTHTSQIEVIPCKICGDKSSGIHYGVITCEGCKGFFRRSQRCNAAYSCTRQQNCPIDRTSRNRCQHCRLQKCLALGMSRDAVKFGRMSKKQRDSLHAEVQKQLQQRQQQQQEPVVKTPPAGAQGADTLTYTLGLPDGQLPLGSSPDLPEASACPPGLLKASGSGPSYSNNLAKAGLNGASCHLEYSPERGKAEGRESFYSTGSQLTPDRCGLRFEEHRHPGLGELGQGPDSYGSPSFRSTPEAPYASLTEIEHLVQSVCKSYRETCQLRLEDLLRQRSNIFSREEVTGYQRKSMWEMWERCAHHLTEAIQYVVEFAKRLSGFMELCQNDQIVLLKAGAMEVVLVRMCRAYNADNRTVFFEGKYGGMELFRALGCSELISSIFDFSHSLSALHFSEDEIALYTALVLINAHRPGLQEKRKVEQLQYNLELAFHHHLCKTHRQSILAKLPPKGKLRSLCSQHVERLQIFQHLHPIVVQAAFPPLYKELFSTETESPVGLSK

[2] = target: T2, RORγ ligand binding domain (LBD) (Homo sapiens, UniProt P51449); assay: TR-FRET Activity Assay (ligand sensing, RORγ-LBD / coactivator peptide interaction, LANCE); type: biochemical
T2 construct: made in house; host or cells: E. coli BL-21 (BL3), vector pDEST15
T2 sequence (P51449 269-508 limits assumed): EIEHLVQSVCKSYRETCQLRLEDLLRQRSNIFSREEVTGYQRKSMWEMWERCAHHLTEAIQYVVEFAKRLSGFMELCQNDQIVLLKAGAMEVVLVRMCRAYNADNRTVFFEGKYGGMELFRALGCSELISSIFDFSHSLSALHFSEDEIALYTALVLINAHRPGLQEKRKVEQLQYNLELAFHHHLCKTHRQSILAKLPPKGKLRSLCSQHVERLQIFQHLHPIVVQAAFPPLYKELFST

[3] = second value of the cell, Gal4 reporter gene assay in 293T cells, firefly luciferase
[4] = third value of the cell, Gal4 reporter gene assay in 293T cells, renilla normalised luciferase
[5] = first value of the cell FRET/FF/REN, TR-FRET activity assay, read-out: pIC50 (FRET) (converted)

SMILES | pIC50 (FF) [1, 3] | pIC50 (REN) [1, 4] | IC50 [2, 5] [nM] | pIC50 (FF) [1] | pIC50 (REN) [1] | IC50 [2] [nM]
CNC(=O)C(C)(C)CNC(=O)c1cc(-c2cc(C(C)(C)C)c3c(c2)C2(CCO3)CC2)n(CC2CCCCC2)c1C [Example 11/1] | 7.3 | 7.3 | 251 | – | – | –
Cc1c(C(=O)NCC(C)(C)O)cc(-c2ccc(S(=O)(=O)NC(C)(C)C)c3c(F)cccc23)n1CC1CCCCC1 [17/365] | 7.0 | 7.0 | 1260 | – | – | –
Cc1c(C(=O)NCC2(C(=O)O)CCOCC2)cc(-c2ccc(S(=O)(=O)NC(C)(C)C)c(C(F)(F)F)c2)n1CC1CCCCC1 [17/201] | 5.7 | 5.7 | 794 | – | – | –
CNC(=O)C1(CNC(=O)c2cc(-c3ccc(S(=O)(=O)NC(C)(C)C)c(C(F)(F)F)c3)n(CC3CCCCC3)c2C)CCOCC1 [17/205] | 6.9 | 7.0 | 794 | – | – | –
Cc1c(C(=O)N[C@H]2CCCOC2)cc(-c2ccc(S(=O)(=O)NC(C)(C)C)c(C(F)(F)F)c2)n1CC1CCCCC1 [17/139] | 7.2 | 7.4 | 158 | – | – | –
Cc1c(C(=O)NC2CCOCC2)cc(-c2ccc(S(=O)(=O)NC3(C)CC3)c(C(C)(C)C)c2)n1CC1CCCCC1 [17/227] | – | – | – | 6.3/8.1/8.1 | 6.3/8.1/8.1 | 501
Cc1c(C(=O)NCC(C)(C)C(=O)NCCS(C)(=O)=O)cc(-c2cc(C(C)(C)C)c3c(c2)C2(CCO3)CC2)n1CC1CCCCC1 [11/4] | 6.9 | 7.0 | 398 | – | – | –
Cc1c(C(=O)NCC(C)(C)NS(C)(=O)=O)cc(-c2ccc(S(=O)(=O)NC(C)(C)C)c(C(C)(C)C)c2)n1CC1CCCCC1 [1/123] | 6.8 | 6.8 | 501 | – | – | –
Cc1c(C(=O)NC2COC2)cc(-c2cc(C(F)(F)F)cc(C3(C)CC3)c2)n1CC1CCCCC1 [1/79] | 7.2 | 7.2 | 398 | – | – | –
Cc1c(C(=O)N[C@H]2C[C@H](C(=O)O)C2)cc(-c2cc(OCC(C)(C)C)nc(C(C)(C)C)c2)n1CC1CCCCC1 [17/195] | 7.6 | 7.6 | 631 | – | – | –
CCCNS(=O)(=O)c1ccc(-c2cc(C(=O)NC3CCOCC3)c(C)n2CC2CCCCC2)cc1C(F)(F)F [17/111] | 7.2 | 7.3 | 316 | – | – | –
CCNC(=O)NC(C)(C)CNC(=O)c1cc(-c2cc(C(C)(C)C)c3c(c2)C2(CCO3)CC2)n(CC2CCCCC2)c1C [17/120] | 6.1 | 6.0 | 2510 | – | – | –
Cc1c(C(=O)NC2CCOCC2)cc(-c2cc(C(F)(F)F)c3c(c2)C(C)(C)C(=O)N3C)n1CC1CCCCC1 [17/148] | 7.0 | 7.0 | 794 | – | – | –
Cc1c(C(=O)NC2COC2)cc(-c2ccc(C(=O)N(C)CC(C)(C)C)c(C(C)(C)C)c2)n1CC1CCCCC1 [1/33] | 6.6 | 6.5 | 794 | – | – | –
Cc1c(C(=O)N[C@H]2C[C@H](C(=O)O)C2)cc(-c2cc(Cl)cc(C(=O)NC(C)(C)C)c2)n1CC1CCCCC1 [17/298] | 5.9 | 6.0 | 2510 | – | – | –
Cc1c(C(=O)NCCCCO)cc(-c2cc(C(C)(C)C)cc(C(C)(C)C)c2)n1CC1CCCCC1 [1/66] | 6.7 | 6.8 | 398 | – | – | –
Cc1c(C(=O)NC2CCOCC2)cc(-c2ccc(S(=O)(=O)NC(C)(C)C)c(OCC(C)(C)C)c2)n1CC1CCCCC1 [17/165] | – | – | – | 5.3/6.5/6.9 | 5.3/6.5/6.9 | 5010
Cc1c(C(=O)NCCCN2CCOCC2)cc(-c2cc(C(C)(C)C)cc(C(C)(C)C)c2)n1CC1CCCCC1 [1/71] | 5.8 | 5.9 | 1260 | – | – | –

SMILES | pIC50 (FF) [1, 3] | pIC50 (REN) [1, 4] | IC50 [2, 5] [nM] | pIC50 (FF) [1] | pIC50 (REN) [1] | IC50 [2] [nM]
Cc1c(C(=O)N[C@H]2C[C@H](C(=O)O)C2)cc(-c2ccc(-c3ccnn3C(C)C)c(C(C)(C)C)c2)n1CC1CCCCC1 [26/5] | 7.9 | 8.0 | 316 | – | – | –
Cc1c(C(=O)NC2CC23CCOCC3)cc(-c2ccc(S(=O)(=O)NC(C)(C)C)c(C(F)(F)F)c2)n1CC1CCCCC1 (stereo not drawn) [17/210] | 7.9 | 8.1 | 158 | – | – | –
COCC(=O)NC(C)(C)CNC(=O)c1cc(-c2cc(C(C)(C)C)c3c(c2)C2(CCO3)CC2)n(CC2CCCCC2)c1C [17/124] | – | – | – | 6.1/7.4/7.5 | 6.1/7.4/7.5 | 794
Cc1c(C(=O)NC2CCOCC2)cc(-c2ccc(C(NC(C)(C)C)C(F)(F)F)c(C(F)(F)F)c2)n1CC1CCCCC1 (stereo not drawn) [Example 25] | 6.3 | 6.2 | 1580 | – | – | –
Cc1c(C(=O)NC[C@H]2CCCO2)cc(-c2cc(C(C)(C)C)c3c(c2)C2(CCO3)CC2)n1CC1CCCCC1 [17/5] | 6.4 | 6.4 | 316 | – | – | –
Cc1c(C(=O)NCC2(O)CC[S+]([O-])CC2)cc(-c2cc(C(C)(C)C)c3c(c2)C2(CCO3)CC2)n1CC1CCCCC1 (stereo not drawn) [17/38] | 6.7 | 6.7 | 1000 | – | – | –
Cc1c(C(=O)NCC(C)(C)C(N)=O)cc(-c2ccc(S(=O)(=O)NC(C)(C)C)c(C(C)(C)C)c2)n1CC1CCCCC1 [1/125] | 7.4 | 7.4 | 794 | – | – | –
Cc1c(C(=O)NCCCCCC(=O)O)cc(-c2cc(C(C)(C)C)cc(C(C)(C)C)c2)n1CC1CCCCC1 [1/72] | 7.1 | 7.1 | 1000 | – | – | –
Cc1c(C(=O)NC2CCOCC2)cc(-c2ccc(S(=O)(=O)NCC(F)(F)F)c(C(F)(F)F)c2)n1CC1CCCCC1 [17/140] | 8.0 | 8.1 | 200 | – | – | –
Cc1c(C(=O)NCC2(C(N)=O)CCOCC2)cc(-c2cc(C(C)(C)C)c3c(c2)C2(CCO3)CC2)n1CC1CCCCC1 [17/41] | 8.1 | 8.2 | 398 | – | – | –
Cc1c(C(=O)NC2COC2)cc(-c2ccc(S(=O)(=O)N(C)C(C)(C)C)c(C(C)(C)C)c2)n1CC1CCCCC1 [9/5] | 7.2 | 7.2 | 316 | – | – | –
Cc1c(C(=O)NC2CCOCC2)cc(-c2ccc(S(=O)(=O)NC(C)(C)C)c(C(C)(C)C)c2)n1CC1CCC1 [17/213] | – | – | – | 6.2/7.1/7.2 | 6.2/7.1/7.2 | 631
Cc1c(C(=O)N[C@@H]2CCOC2)cc(-c2cc(C(C)(C)C)cc(C3(C)CC3)c2)n1CC1CCCCC1 [17/66] | 7.4 | 7.4 | – | – | – | 158
Cc1c(C(=O)N[C@H]2C[C@H](C(=O)O)C2)c(Cl)c(-c2cc(C(C)(C)O)cc(C3(C)CC3)c2)n1CC1CCCCC1 [29/1] | 6.8 | 6.8 | 3160 | – | – | –
Cc1c(C(=O)NCCOCCO)cc(-c2cc(C(C)(C)C)cc(C(C)(C)C)c2)n1CC1CCCCC1 [1/63] | – | – | – | 6.2/6.7/6.7 | 6.2/6.7/6.7 | 631
Cc1c(C(=O)NC2COC2)cc(-c2cc(C(F)(F)F)c3c(c2)C2(CCO3)CC2)n1CC1CCCCC1 [1/132] | 6.8 | 6.8 | 631 | – | – | –
Cc1c(C(=O)NCc2nc(C(N)=O)co2)cc(-c2cc(C(C)(C)C)c3c(c2)C2(CCO3)CC2)n1CC1CCCCC1 [17/17] | – | – | – | 6.1/6.3/6.4 | 6.1/6.3/6.4 | 794
